Like-named read-outs stand apart in the source and are kept apart here. Residues, ends and D or L forms follow the SMILES beside them. *: point of attachment. Cbz = O=C(OCc1ccccc1)*; CH2F = FC*
Assays:
in vitro = details: African green monkey
SARS-CoV-2 USA_WA1/2020 = type: cell-based
Vero E6 cells = details: for Concentration at Maximum % Viability: monkey
[1] = target: recombinant human ACE2 (rhACE2) (Homo sapiens, UniProt Q9BYF1); experiment: ACE2 inhibitor screening assay; type: biochemical
[2] = target: rhACE2 - SARS-CoV-2 Spike (RBD) protein interaction (Homo sapiens, UniProt Q9BYF1); experiment: biochemical; type: binding, human; SARS-CoV-2
rhACE2 - SARS-CoV-2 Spike (RBD) protein interaction, sequence (Q9BYF1 18-740): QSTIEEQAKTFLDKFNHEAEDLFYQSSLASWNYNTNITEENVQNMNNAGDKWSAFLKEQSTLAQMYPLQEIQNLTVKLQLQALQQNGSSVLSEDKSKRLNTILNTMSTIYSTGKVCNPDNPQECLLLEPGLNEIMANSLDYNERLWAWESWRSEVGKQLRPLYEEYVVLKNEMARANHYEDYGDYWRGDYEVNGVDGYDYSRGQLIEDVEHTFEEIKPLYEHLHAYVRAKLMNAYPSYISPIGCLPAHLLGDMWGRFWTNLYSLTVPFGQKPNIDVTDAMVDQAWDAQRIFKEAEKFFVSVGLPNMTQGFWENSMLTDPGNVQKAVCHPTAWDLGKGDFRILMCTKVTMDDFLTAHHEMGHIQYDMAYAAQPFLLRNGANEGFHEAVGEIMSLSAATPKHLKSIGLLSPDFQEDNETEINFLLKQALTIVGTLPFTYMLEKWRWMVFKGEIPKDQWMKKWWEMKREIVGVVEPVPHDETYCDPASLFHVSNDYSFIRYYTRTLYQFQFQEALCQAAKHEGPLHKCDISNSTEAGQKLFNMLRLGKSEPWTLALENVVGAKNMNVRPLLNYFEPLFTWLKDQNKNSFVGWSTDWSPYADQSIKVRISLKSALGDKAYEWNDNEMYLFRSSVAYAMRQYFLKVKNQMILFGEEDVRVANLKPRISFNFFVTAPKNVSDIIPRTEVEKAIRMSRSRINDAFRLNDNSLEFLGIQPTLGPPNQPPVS

[3] = test system: ACE2-Spike interaction (SARS-CoV, SARS-CoV2, NL63S); details: cited from earlier work
[4] = Spike (RBD)-ACE2 Interaction Assay IC50_1
[5] = Spike (RBD)-ACE2 Interaction Assay IC50_2

recombinant human ACE2 (rhACE2), sequence (Q9BYF1 18-805): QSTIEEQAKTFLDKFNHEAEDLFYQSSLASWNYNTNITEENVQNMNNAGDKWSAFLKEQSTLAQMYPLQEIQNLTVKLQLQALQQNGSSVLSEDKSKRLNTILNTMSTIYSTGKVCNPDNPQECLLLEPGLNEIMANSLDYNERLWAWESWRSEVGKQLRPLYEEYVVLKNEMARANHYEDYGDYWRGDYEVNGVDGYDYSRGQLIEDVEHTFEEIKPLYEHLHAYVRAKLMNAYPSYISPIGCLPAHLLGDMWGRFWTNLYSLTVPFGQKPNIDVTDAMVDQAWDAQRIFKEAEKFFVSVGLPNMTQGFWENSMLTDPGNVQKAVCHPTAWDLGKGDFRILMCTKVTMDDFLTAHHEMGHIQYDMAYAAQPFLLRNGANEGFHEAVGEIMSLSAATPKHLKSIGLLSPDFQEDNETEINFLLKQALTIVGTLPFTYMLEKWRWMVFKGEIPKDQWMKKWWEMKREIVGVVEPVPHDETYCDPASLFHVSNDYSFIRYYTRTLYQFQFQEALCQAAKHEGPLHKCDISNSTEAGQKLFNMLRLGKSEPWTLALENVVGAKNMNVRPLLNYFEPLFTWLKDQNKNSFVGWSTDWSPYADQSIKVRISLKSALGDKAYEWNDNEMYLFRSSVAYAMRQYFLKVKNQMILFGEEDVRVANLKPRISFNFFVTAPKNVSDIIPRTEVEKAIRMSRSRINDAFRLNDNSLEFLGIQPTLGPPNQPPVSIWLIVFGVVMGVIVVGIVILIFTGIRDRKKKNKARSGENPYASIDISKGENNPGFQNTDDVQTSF

Structure (SMILES)	CC50 (in vitro)	viability (in vitro; Maximum Viability (%))	viability (in vitro; Minimum Viability (%))	Maximum Inhibition (%) (SARS-CoV-2 USA_WA1/2020)	Concentration at Minimum % Viability (Vero E6 cells; African green monkey)	Concentration at Maximum % Viability (Vero E6 cells)	IC50 [2, 4]	further results
CCOC(=O)[C@H]1O[C@@H]1C(=O)N[C@@H](CC(C)C)C(=O)NCCC(C)C [E64d (Aloxistatin), Aloxistatin]	> 30 µM	113%	100%	98.55%	15000 nM	120 nM	–	–
CCN(CC)CCCC(C)Nc1ccnc2cc(Cl)ccc12 (stereo not shown) [Chloroquine]	> 30 µM	107%	95.6%	111.08%	15000 nM	60 nM	–	–
CCN(CCO)CCCC(C)Nc1ccnc2cc(Cl)ccc12 (stereo not shown) [Hydroxychloroquine]	> 30 µM	104%	96.9%	93.14%	3750 nM	60 nM	–	–
[Cl-].[Cl-].[Zn+2] [ZnCl2, Zinc Chloride]	–	–	–	–	–	–	–	exopeptidase activity of rhACE2 in the presence of ZnCl2 alone ([1]; 100μM to 100nM): increasing exopeptidase activity
CCC(CC)COC(=O)[C@H](C)N[P@](=O)(OC[C@H]1O[C@@](C#N)(c2ccc3c(N)ncnn23)[C@H](O)[C@@H]1O)Oc1ccccc1 [Remdesivir]	> 30 µM	104%	97.5%	100.27%	3750 nM	60 nM	–	–
Oc1c(Br)cc(Cl)c2cccnc12 [CLBQ14, 7-bromo-5-chloro-8-hydroxyquinoline]	> 30 µM	108%	53.5%	–	15000 nM	120 nM	2.76 µM	IC50 [2, 5]: 3.06 µM; IC50 [1]: 5.55 µM
CC(C)C[C@H](NC(=O)OCc1ccccc1)C(=O)N[C@@H](CC(C)C)C(=O)N[C@@H](Cc1ccc(O)cc1)C(=O)CF [Calpain Inhibitor IV] (Cbz-Leu-Leu-Tyr-CH2F)	–	–	–	95.75%	–	220 nM	–	IC50 (SARS-CoV-2 USA_WA1/2020; read-out: IC50, SARS-CoV-2 induced CPE): 0.41 µM; CC50 (Vero E6 cells): > 7.17 µM; Concentration at Minimum % Viability (Vero E6 cells): 3590 nM; Maximum Viability (%) (Vero E6 cells): 104.99%; Minimum Viability (%) (Vero E6 cells): 98.29%
Oc1c(I)cc(Cl)c2cccnc12 [CLQ, 5-chloro-7-iodo-8-quinolinol]	> 30 µM	106%	61.8%	–	30000 nM	230 nM	0.85 µM	–
CC(C)C[C@H](N[C@@H](Cc1cncn1Cc1cc(Cl)cc(Cl)c1)C(=O)O)C(=O)O [MLN-4760, (S,S)-2-{1-Carboxy-2-[3-(3,5-dichloro-benzyl)-3H-imidazol-4-yl]-ethylamino}-4-methyl-pentanoic acid]	–	–	–	–	–	–	–	disruption of ACE2-Spike interaction [3]: does not disrupt ACE2-Spike interaction
Oc1c(Cl)cc(Cl)c2cccnc12 [CLCQ, 5,7-dichloro-8-hydroxyquinoline]	> 30 µM	102%	60.8%	–	15000 nM	60 nM	1.74 µM	IC50 [2, 5]: 1.91 µM; IC50 [1]: < 10 µM

From PMC7951571 (Heliyon, 2021)
